Our source for the IC50 values is ChEMBL document CHEMBL1151054, “Fungal metabolite of naftazone inhibits nitrite production by activated murine macrophages” (Bioorg Med Chem Lett, 1995).

The target of assay [1] is T1, Nitric oxide synthase, inducible (Mus musculus, UniProt P29477).
T1 sequence (P29477 whole entry): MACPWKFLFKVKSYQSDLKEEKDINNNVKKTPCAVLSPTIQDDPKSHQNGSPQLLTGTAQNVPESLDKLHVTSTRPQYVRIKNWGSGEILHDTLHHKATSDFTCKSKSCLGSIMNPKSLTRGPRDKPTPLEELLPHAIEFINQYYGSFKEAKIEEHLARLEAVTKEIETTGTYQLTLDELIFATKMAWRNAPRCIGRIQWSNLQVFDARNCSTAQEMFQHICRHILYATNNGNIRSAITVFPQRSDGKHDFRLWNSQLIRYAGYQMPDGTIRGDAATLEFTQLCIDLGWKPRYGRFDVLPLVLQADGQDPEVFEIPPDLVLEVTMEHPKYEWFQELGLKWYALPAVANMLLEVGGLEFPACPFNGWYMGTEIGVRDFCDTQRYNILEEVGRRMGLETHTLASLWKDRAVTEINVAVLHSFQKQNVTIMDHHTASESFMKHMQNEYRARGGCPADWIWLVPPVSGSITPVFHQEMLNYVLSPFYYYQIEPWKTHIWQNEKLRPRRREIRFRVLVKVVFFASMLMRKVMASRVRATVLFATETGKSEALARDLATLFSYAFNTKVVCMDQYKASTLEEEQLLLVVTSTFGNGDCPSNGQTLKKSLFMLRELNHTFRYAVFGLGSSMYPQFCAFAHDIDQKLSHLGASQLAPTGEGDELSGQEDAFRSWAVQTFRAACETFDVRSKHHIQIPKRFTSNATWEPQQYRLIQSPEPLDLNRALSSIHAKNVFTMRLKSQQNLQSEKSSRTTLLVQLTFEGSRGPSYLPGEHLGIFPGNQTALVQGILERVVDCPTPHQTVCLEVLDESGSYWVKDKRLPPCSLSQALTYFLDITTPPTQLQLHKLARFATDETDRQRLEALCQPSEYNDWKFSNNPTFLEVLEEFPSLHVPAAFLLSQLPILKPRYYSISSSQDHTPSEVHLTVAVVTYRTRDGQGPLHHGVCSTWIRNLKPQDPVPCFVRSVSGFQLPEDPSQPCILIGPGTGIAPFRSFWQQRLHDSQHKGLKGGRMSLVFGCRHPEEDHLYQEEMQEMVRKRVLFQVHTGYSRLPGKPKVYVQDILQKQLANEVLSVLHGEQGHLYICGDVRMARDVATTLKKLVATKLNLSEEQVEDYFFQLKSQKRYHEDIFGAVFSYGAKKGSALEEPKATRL
The assay can be described thus: Compound was tested for inhibition of inducible Nitric oxide synthase in activated murine macrophages.

Assay [2] is described as follows: Compound was tested for inhibition of constitutive bovine brain Nitric oxide synthase. The assay is classed as tissue-based.

The IC50 is the concentration that gives 50% inhibition. A low value points to higher potency. In assay [1], `c1ccc(-n2ccnc2)cc1` came in with an IC50 of 8 µM.

In assay [1], `O=c1nnc2ccc3c(c2[nH]1)=CCCC=3` returned an IC50 of 50 µM. `O=[N+]([O-])c1ccc2cn[nH]c2c1`: the IC50 was 2.5 µM in assay [2] and 20 µM in assay [1].
